Reference: patent publication US20240172744A1, “H[…] SOLUTION FOR REPAIRING KIDNEY INJURY AND USE THEREOF” (WUHAN UNIVERSITY, priority 2022, published 2024)

Columns and labels:
[1] = test system: kidney from a donation after circulatory death donor of a rat; assay: H&E pathological examination of renal tissues after 2 h of kidney perfusion; settings: Examples 1-4: 200, 400, 600, 800 μM in KPS-1 solution; warm ischemia 30, 45, 60, 90 min; after 2 h perfusion; FIGS. 3A-3D
Procedure: After 2 h of kidney perfusion according to the methods of Examples 1-4, 1 cm^3 of renal tissues were taken out and fixed in neutral formaldehyde for storage, and then dehydrated, embedded in paraffin, sectioned and then stained by H&E, and finally photographed under a microscope to observe morphological changes and pathological analysis of tissues.

[2] = test system: kidney from a donation after circulatory death donor of a rat; assay: hypothermic oxygenated perfusion of rat donation-after-circulatory-death kidney ex-vivo, perfusion parameters (intrarenal resistance); settings: Examples 1-4: 200, 400, 600, 800 μM in KPS-1 solution, warm ischemia 30, 45, 60, 90 min, 0-4 °C, 30 mmHg, 2 h perfusion, FIGS. 2A-2D
Procedure: The method for performing hypothermic oxygenated perfusion on a kidney from a donation after circulatory death donor of a rat by using the perfusion fluid according to the examples of the present invention specifically includes the following steps: for a donor organ donated after a cardiac death, in the kidney acquisition process, performing in-situ organ lavage by using heparin sodium saline with a temperature of 4° C. to effectively remove thrombus in large blood vessels and to relieve the obstacle of the thrombus to the delivery of carbon monoxide released by carbon monoxide-releasing molecules to the kidney, combining ex-vivo hypothermic oxygenated perfusion with the carbon monoxide released by the carbon monoxide-releasing molecules to specifically achieve the vasodilation, the removal of microthrombus and the recovery of the patency of the microcirculation, and evaluating the function and quality of the kidney through perfusion parameters (perfusion flow and intrarenal resistance) and a macroscopic kidney state, wherein the perfusion parameters can reflect the kidney function to a certain degree; a kidney with a good function can be subjected to allogeneic kidney transplantation and a kidney with a poor function will be discarded. […]

carbon monoxide-releasing molecules-401
pathological examination of renal tissues (glomeruli, renal tubules, renal interstitium; H&E) [1]: no obvious abnormality found | intrarenal resistance during hypothermic oxygenated perfusion ([2]; listed as carbon monoxide-releasing molecule): continuously decrease | intrarenal resistance during hypothermic oxygenated perfusion ([2]; listed as carbon monoxide-releasing molecules): significantly reduced and maintained to be stable
